Assays:
[1] = tested on: NCI 60-cell panel; conditions: read-out: Growth Inhibition of 50% (GI50); cited from earlier work
[2] = tested on: LNCaP cells; assay type: cell-based
[3] = tested on: Hsp90 derived from transformed cells overexpressing HER-2 (BT474, N87, SKOV3 and SKBR3); conditions: cited from earlier work
[4] = tested on: MCF7 cells
[5] = preclinical data; cited from earlier work
[6] = tested on: Hsp90/Hsp70 chaperoning machinery (rabbit reticulocyte lysate) with progesterone receptor; experiment: Progesterone receptor (PR) reconstitution assay: recovery of hormone binding activity of PR; assay type: biochemical
From the text: To identify small molecule inhibitors of molecular chaperones, a high-throughput functional screen was developed based on the isoform A of progesterone receptor (PRA), a well-established physiological client of Hsp90, and using rabbit reticulocyte lysate (RRL) as a source of molecular chaperones. This comprehensive functional assay measured the recovery of hormone binding activity of PRA after mild heat treatment. Purified PR was adsorbed onto PR22 antibody bound to protein A that was absorbed on 96 well plates. 100 μl of RRL lysate and ATP regeneration system was added to each well. After incubation for 30 min at 30° C., 0.1 μM [3H]-progesterone (American Radiolabeled Chemicals, Inc #ART 0063) was added. Plates were incubated on ice for 2 h at 4° C. Complexes were then washed three times with 200 μl of reaction buffer (20 mM Tris/HCl, pH 7.5, 5 mM MgCl2, 2 mM DTT, 0.01% NP-40, 50 mM KCl and 5 mM ATP) and assessed for bound progesterone by liquid scintillation using PerkinElmer Microbeta plate reader.
PR complexes were reconstituted on a 96-well plate; the first eight samples contain the following internal controls: 1. Protein A alone, 2. Protein A+PR22, 3. Protein A+PR22+PR, 4. Protein A+PR22+PR+RRL, 5. Protein A+PR22+PR+RRL+17-AAG (20 μM), 6. Protein A+PR22+PR+RRL+Myrecetin (20 μM), 7. Protein A+PR22+PR+RRL+geldanamycin (20 μM), 8. Protein A+PR22+PR+RRL+gedunin (20 μM). […]

[7] = tested on: MCF7 cells; experiment: Microscopy (light, transmission electron) of capsaicin-treated MCF7 cells; assay type: cell-based
[8] = tested on: Hsc70 (constitutive form); experiment: Western blotting of Hsc70 in cancer cells; assay type: cell-based; conditions: HeLa and MCF7 cells
Experimental: (§1) FIGS. 2A-2F are autoradiographs of composite images of Western immuno-staining blots. […] FIGS. 2D-E show the Hsp90 client proteins HER2, GR, PRB, CDK4, Chk1, Raf-A, Akt and ILK, and the chaperones Hsp70, 2;3, Hsc70, HOP, HDJ2 (Hsp40), p23, Hsp90α and Hsp90β in the presence of DMSO, 2.5 μM 17AAG or 50, 100 or 200 μM capsaicin in HeLa cells (FIG. 2D) or MCF7 cells (FIG. 2E), respectively. In all blots, 2.5 μM 17-AAG was used as a positive control for cellular degradation of several kinases and hormone receptor clients of Hsp90, Beta actin (β-actin) was used a loading control. FIG. 2F is an autoradiograph of a Western blot showing capsaicin altered Hsp70 multi-chaperone complexes in cells. LNCaP cells were treated with 200 μM capsaicin for 6 h and then lysed, and Hsp70 complexes were pulled down using an antibody against Hsp70 on Protein A-Sepharose beads. Western blotting was performed for Hsp70, Hsp40 (HDJ-2), and Hsp90β. Capsaicin reduced Hsp40 and Hsp90 binding to Hsp70. Mouse IgG was used as a control.
(§2) Cells were lysed with buffer A (10 mM Tris pH 8.0, 137 mM NaCl, 10% glycerol, 1% Nonident P-40) supplemented with protease inhibitor cocktail (Roche Applied Science catalog no. 11 836 170 001) on ice for 30 minutes, shaking every 5 minutes. Lysate was centrifuged at 16,000×g for 10 minutes. 10 μg of clarified lysates were run on SDS-PAGE (10% gel) and transferred to PVDF membrane. […]

[9] = tested on: Hsp90; experiment: Fluorescence emission assay with Hsp90; assay type: binding; conditions: Hsp90 15 μM, capsaicin 7.5 μM, excitation 266 nm
Experimental: (§3) FIG. 5A is a histogram showing the ratio of Hsp70 mRNA relative to β-actin in the presence of DMSO, 100 μM or 200 μM capsaicin (Cap) after RT-PCR. FIG. 5B is a graph of fluorescence emission spectra for capsaicin, Hsp70, Hsp70 with capsaicin (Hsp70+C), Hsp90, Hsp90 with capsaicin (Hsp90+C), Hsp40 and Hsp40 with capsaicin (Hsp40+C), at wavelengths between 290 and 440 nm. All chaperones were tested at 15 μM and capsaicin at 7.5 μM. Proteins were incubated for 1 h at room temp in the presence or absence of capsaicin. An excitation wavelength of 266 nm was used.
(§4) To determine the effect of molecular chaperones on the fluorescence emission of capsaicin, all chaperones were tested at 15 μM and capsaicin at 7.5 μM concentrations. Proteins were incubated for 1 h at room temperature in the presence or absence of capsaicin. A 96-well black plate and a SAFIRE-TECAN plate reader were used. The excitation wavelength was 266 nm.

[10] = tested on: Hsp40; experiment: Fluorescence emission assay with Hsp40; assay type: binding; conditions: Hsp40 15 μM, capsaicin 7.5 μM, excitation 266 nm
Experimental: as §3, §4

[11] = tested on: Hsp90 client proteins (Her2, CDK4, ChK1, Raf-A, Akt, ILK, GR, PR, AR); experiment: Western blotting of Hsp90 client proteins in cancer cells; assay type: cell-based; conditions: 50, 100, 200 μM capsaicin; HeLa, MCF7, LNCaP cells
Experimental: as §1, §2

[12] = tested on: Hsp70 mRNA; experiment: Gene expression assay (RT-PCR) of Hsp70 mRNA in MCF7 cells; assay type: cell-based
[13] = tested on: Hsp70 (inducible form, Hsp70i); experiment: Western blotting of Hsp70 in cancer cells; assay type: cell-based
[14] = tested on: cancer cells (LNCaP, MCF7, HepG2, HeLa); experiment: Colony formation assay; assay type: cell-based; conditions: 200 μM capsaicin for 24 h, 15 days growth
From the text: FIG. 3A is a line graph of absorbance at 495 nm (arbitrary units) versus Capsaicin dose (μM) of Hs578Bst and MCF7 cells treated with the indicated dose of capsaicin. FIG. 3B is a line graph of absorbance at 495 nm versus time of capsaicin treatment (hours) of Hs578Bst cells and MCF7 cells. Stippled line represents Hs578Bst cells and solid line represents MCF7 cells. FIGS. 3C-F are histograms showing colony number versus treatment with DMSO or Capsaicin in the following cell lines: LNCaP (FIG. 3C), MCF7 (FIG. 3D), HepG2 (FIG. 3E), and HeLa (FIG. 3F). Cells were treated with 200 μM capsaicin for 24 h. Adherent cells were then collected and plated (1000 cells per 10 cm dish) for further incubation. The standard deviation of three dishes is shown as error bars. The experiment was reproduced twice. FIG. 3G is an autoradiograph of cell lysates HeLa, MCF7 and LNCaP treated with 200 μM capsaicin for 24 h; cell lysates were made and Western blotted for p62/SQSTM1 and LC3II. β-actin was used as a loading control. LNCaP cells were treated with 50, 100 and 200 μM capsaicin for 24 h. this experiment was reproduced twice. […] DMSO was used as a control.
Cells were grown in 6-well tissue culture plates to 60% confluence and treated with 200 μM capsaicin or DMSO control for 24 h. […] Cells were fixed with 6% Glutaraldehyde and 0.5% Crystal Violet, and colonies that contained 50 cells were counted. […]

[15] = 5 mg/kg by gavage, three days per week for 2-4 weeks; cited from earlier work
[16] = tested on: Hsp90α, Hsp90β, Hsp40, p23 and Hop; experiment: Western blotting of molecular chaperones in cancer cells; assay type: cell-based; conditions: 50, 100, 200 μM capsaicin
Experimental: as §1, §2

[17] = tested on: LC3II and p62/SQSTM1; experiment: Western blotting of autophagy markers; assay type: cell-based
[18] = purified capsaicin; cited from earlier work
[19] = biological target: T1, Hsp70 multi-chaperone complexes (Homo sapiens, UniProt P0DMV8); experiment: Hsp70 complex pull-down and Western blotting in LNCaP cells; assay type: cell-based; conditions: 200 μM capsaicin, 6 h
T1 construct: endogenous in cells; host or cells: LNCaP
Experimental: as §1
FIG. 12 is an autoradiograph of LNCaP cells treated with 200 μM capsaicin for 6 h and then lysed and Western blotted for Hsp70, Hsp40 (HDJ-2), and Hsp90β. Capsaicin reduced Hsp40 and Hsp90 binding to Hsp70. Mouse IgG was used as a control.

[20] = biological target: Hsp70 (Homo sapiens, UniProt P0DMV8); experiment: Fluorescence emission assay with purified Hsp70; assay type: binding; conditions: Hsp70 15 μM, capsaicin 7.5 μM, 1 h room temperature, excitation 266 nm
Experimental: as §3, §4

[21] = in vivo; cited from earlier work
[22] = tested on: HCT 116 colon cancer cells; conditions: cited from earlier work

Chain of Hsp70 (P0DMV8 2-641 limits assumed): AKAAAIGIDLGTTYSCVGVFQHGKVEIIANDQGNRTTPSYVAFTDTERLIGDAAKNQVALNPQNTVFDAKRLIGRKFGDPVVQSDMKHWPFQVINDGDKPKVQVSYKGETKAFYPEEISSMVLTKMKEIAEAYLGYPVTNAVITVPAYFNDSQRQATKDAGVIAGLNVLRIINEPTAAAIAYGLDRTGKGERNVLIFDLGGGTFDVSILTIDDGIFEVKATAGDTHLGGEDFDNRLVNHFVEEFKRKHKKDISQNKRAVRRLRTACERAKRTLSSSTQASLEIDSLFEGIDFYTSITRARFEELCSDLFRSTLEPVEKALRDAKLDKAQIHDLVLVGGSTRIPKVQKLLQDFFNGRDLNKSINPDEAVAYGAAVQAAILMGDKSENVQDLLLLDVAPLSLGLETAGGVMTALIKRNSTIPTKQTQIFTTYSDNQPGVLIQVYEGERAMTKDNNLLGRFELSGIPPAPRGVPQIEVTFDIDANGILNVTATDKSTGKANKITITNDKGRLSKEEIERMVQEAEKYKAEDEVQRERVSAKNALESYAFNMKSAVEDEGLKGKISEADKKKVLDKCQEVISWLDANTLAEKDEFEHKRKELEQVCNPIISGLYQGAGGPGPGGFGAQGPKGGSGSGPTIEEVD
T1 sequence (P0DMV8 2-641 limits assumed, one chain of several): as the sequence (P0DMV8 2-641 limits assumed) above

C=CCNC1=C2C[C@@H](C)C[C@H](OC)[C@H](O)[C@@H](C)/C=C(\C)[C@H](OC(N)=O)[C@@H](OC)/C=C\C=C(/C)C(=O)NC(=CC1=O)C2=O [17-AAG, 17-allylamino-17-demethoxygeldanamycin]
GI50 [1]: 0.12 µM | cell killing (relative survival) [2]: very little effect or no effect | IC50 ([3]; Hsp90 from HER-2 overexpressing cells or BT474 breast carcinoma cells): 0.005 to 0.006 µM | higher affinity for Hsp90 derived from transformed cells ([3]; relative to non-tumor cells): more than 100 × | cytotoxicity (cell survival) [4]: minimal cytotoxicity

CO[C@H]1/C=C\C=C(/C)C(=O)NC2=CC(=O)C(NCCN(C)C)=C(C[C@@H](C)C[C@H](OC)[C@H](O)[C@@H](C)/C=C(\C)[C@@H]1OC(N)=O)C2=O [17-DMAG, 17-Dimethylaminoethylamino-17-demethoxygeldanamycin]
GI50 [1]: 0.051 µM

CC(C)c1cc(-c2n[nH]c(=O)n2-c2ccc3c(ccn3C)c2)c(O)cc1O [Ganetespib]
cardiac or liver toxicity [5]: no evidence of cardiac or liver toxicity

COc1cc(CNC(=O)CCCC/C=C/C(C)C)ccc1O [capsaicin, 8-Methyl-N-vanillyl-trans-6-nonenamide]
blocking the hormone-binding activity of PR ([6]; rescreened in triplicates at 20 μM final concentration): about 40% | modulation of the Hsp90 chaperoning activity ([6]; screen of NIH Clinical Collection library (FIG. 1)): efficient and reproducible modulation | mitophagy [7]: induced mitophagy | level of Hsc70 [8]: did not change | capsaicin fluorescence emission in presence of Hsp90 [9]: may not significantly change | capsaicin fluorescence emission in presence of Hsp40 [10]: may not significantly change | cellular degradation of Hsp90 client proteins [11]: caused cellular degradation | level of Hsp70 mRNA ([12]; 100 or 200 μM capsaicin, 24 h (FIG. 5A)): No change | level of Hsp70 mRNA ([12]; capsaicin 200 μM, 17-AAG 200 nM (FIG. 7A)): slightly increased | level of Hsp70 ([13]; HeLa and MCF7 cells): reduced the level of Hsp70 | degradation of Hsp70 ([13]; HeLa, LNCaP, MCF7, Hs578T and MDA-MB-231, 24 h): reproducibly caused degradation | level of Hsp70 after 6 h of treatment ([13]; LNCaP cells, 200 μM capsaicin, 6 h (FIG. 12)): not significantly down | stabilization of Hsp70 protein by autophagy inhibitor 3MA ([13]; capsaicin 200 μM (alone or with 17-AAG) plus 3MA 5 mM, 6 h): almost fully stabilizes | rescue of Hsp70 protein by proteasome inhibitor MG132 ([13]; capsaicin 200 μM plus MG132 20 μM, 6 h): does not rescue | Hsp70 protein level ([13]; capsaicin 200 μM, 17-AAG 200 nM (FIG. 7C)): decreased | ability of cancer cells to form colonies [14]: efficiently reduces | cell killing (relative survival) [2]: very little effect or no effect | toxicity symptoms [15]: No toxicity symptoms were observed | expression level of molecular chaperones Hsp90α, Hsp90β, Hsp40, p23 and Hop [16]: did not affect | LC3II modification ([17]; HeLa cells, 200 μM capsaicin 24 h): no LC3II modification | LC3B modification ([17]; LNCaP cells, 50, 100, 200 μM capsaicin 24 h): concentration-dependent induction | LC3II levels ([17]; MCF7 and LNCaP cells, 200 μM capsaicin 24 h): significantly increased | p62/SQSTM1 protein level ([17]; capsaicin treatment, Western blot): accumulation | solubility in alcohol, fats and oils [18]: freely soluble | solubility in cold water [18]: insoluble | Hsp40 and Hsp90 binding to Hsp70 [19]: reduced | cell death of MCF7 cancer cells [4]: caused cell death | cytotoxicity (cell survival) [4]: minimal cytotoxicity | capsaicin fluorescence emission in presence of Hsp70 [20]: completely quenched | pharmacokinetic half-life [21]: approximately 24 hours

COc1cc(CNC(=O)CCCCCCC(C)C)ccc1O [dihydrocapsaicin]
mitoautophagy [22]: induces mitoautophagy

— patent US20150025052A1, “Compositions and Methods for Inhibiting HSP90/HSP70 Machinery” (Georgia Regents Research Institute, Inc., priority 2013, published 2015)
